Calls of active or inactive are those of the source.
Legend:
[1] = THP-1 cell cytotoxicity, dose response, cytotoxicity control for non-replicating M. tuberculosis project (AID 489025); assay type: functional
[2] = HepG2 cell cytotoxicity, dose response, cytotoxicity control for non-replicating M. tuberculosis project (AID 489018); assay type: functional; conditions: Mycobacterium tuberculosis
[3] = Vero E6 cell cytotoxicity, dose response, cytotoxicity control for non-replicating M. tuberculosis project, secondary assay (AID 492998); assay type: functional, VeroE6; conditions: Vero C1008
cells [4] = assay type: functional
[5] = HEp-2 cell cytotoxicity, dose response, cytotoxicity control for RSV inhibitor project, HTS (AID 2410); assay type: functional; conditions: human respiratory syncytial virus
cells [6] = assay: cells
[7] = inhibitors of intracellular T. cruzi replication, confirmation, NIH3T3 host cells, beta-gal luminescence (AID 2044); assay type: functional, cell-based;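 note: intracellular parasites grown in NIH/3T3 mouse fibroblasts as host cells; luminescent beta-galactosidase reporter signal from transgenic T. cruzi replicating inside host cells; inhibitors lower the luminescence signal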
[8] = cytotoxicity toward NIH3T3 fibroblasts, dose response, counter-screen, cell-based, ATP luminescence, mouse fibroblasts (AID 2010); assay type: functional;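 note: cells exposed to compound for about 90 hours before reading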
CAAX prenyl protease 2 = molecular target: T1, CAAX prenyl protease 2 (Saccharomyces cerevisiae S288c, UniProt Q03530); assay type: biochemical
T1 sequence (Q03530 whole entry): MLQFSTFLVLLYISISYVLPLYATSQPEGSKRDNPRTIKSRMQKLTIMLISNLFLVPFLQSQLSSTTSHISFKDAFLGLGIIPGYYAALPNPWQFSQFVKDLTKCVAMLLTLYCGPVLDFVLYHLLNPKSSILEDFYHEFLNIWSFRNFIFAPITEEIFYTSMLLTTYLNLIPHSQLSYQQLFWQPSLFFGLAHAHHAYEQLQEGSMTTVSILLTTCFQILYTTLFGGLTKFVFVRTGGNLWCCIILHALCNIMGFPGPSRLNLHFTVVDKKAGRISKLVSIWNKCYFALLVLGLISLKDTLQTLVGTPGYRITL

Vero [9] = assay: cells; assay type: functional, cell-based; conditions: Chlorocebus sabaeus
Vero [10] = assay: cells; assay type: functional; conditions: Chlorocebus sabaeus
cells [11] = assay: cells; remark: listed apart in the source
cells [12] = assay type: functional, cell-based
cells [13] = assay type: functional, cell-based; remark: listed apart in the source
[14] = molecular target: DNA dC->dU-editing enzyme APOBEC-3A (Homo sapiens, UniProt P31941); assay: APOBEC3A DNA deaminase inhibitors, dose response, biochemical (AID 504722); assay type: functional
Chain of DNA dC->dU-editing enzyme APOBEC-3A (P31941 whole entry): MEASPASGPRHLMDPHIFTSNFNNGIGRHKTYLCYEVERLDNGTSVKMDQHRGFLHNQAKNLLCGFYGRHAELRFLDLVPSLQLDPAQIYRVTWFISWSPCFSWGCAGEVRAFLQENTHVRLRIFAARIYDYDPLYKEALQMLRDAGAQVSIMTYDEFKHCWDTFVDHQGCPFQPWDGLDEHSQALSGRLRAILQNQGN

[15] = molecular target: DNA dC->dU-editing enzyme APOBEC-3G (Homo sapiens, UniProt Q9HC16); assay: Dose Response confirmation of small molecule APOBEC3G DNA Deaminase Inhibitors via a fluorescence-based single-stranded DNA deaminase assay. [Related pubchem assays (depositor defined):AID493012, AID493028]; assay type: functional
Chain of DNA dC->dU-editing enzyme APOBEC-3G (Q9HC16 whole entry): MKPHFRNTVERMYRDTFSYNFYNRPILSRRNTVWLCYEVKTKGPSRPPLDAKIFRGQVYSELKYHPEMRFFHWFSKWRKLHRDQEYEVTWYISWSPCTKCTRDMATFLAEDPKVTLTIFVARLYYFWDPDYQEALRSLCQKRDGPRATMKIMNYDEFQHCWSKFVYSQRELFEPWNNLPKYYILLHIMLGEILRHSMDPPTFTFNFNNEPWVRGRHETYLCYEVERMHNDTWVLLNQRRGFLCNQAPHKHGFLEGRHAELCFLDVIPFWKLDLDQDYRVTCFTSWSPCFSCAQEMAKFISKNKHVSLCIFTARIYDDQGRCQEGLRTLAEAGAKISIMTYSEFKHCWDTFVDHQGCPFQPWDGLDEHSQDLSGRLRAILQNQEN

[16] = molecular target: T2, Rac GTPase-activating protein 1 (Homo sapiens, UniProt Q9H0H5); assay: MgcRacGAP GTPase-activating activity inhibitors, confirmation, biochemical, ADP Hunter fluorescence, primary and confirmatory (AID 624330); assay type: functional
T2 sequence (Q9H0H5 whole entry): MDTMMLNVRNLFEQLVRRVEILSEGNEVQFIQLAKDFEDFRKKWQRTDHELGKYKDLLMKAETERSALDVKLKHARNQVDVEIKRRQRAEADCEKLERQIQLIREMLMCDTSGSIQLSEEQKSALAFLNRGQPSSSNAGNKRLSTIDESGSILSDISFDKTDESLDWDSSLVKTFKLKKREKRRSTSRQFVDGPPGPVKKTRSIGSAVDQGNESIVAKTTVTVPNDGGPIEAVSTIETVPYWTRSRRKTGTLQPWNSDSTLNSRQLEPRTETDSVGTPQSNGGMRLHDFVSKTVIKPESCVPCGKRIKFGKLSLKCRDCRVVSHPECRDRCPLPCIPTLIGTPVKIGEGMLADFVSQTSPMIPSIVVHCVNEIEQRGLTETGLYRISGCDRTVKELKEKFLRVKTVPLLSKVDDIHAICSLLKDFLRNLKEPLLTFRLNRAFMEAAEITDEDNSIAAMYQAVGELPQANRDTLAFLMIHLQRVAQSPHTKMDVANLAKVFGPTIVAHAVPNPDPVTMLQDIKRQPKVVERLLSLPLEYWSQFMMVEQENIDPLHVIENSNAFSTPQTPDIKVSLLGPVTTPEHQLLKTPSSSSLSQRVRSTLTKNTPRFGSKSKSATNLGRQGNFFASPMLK

[17] = molecular target: T3, Corticotropin-releasing factor receptor 2/Corticotropin-releasing factor-binding protein (Homo sapiens, UniProt P24387+Q13324); assay: Dose Response confirmation of uHTS hits for small molecule antagonists of the CRF-binding protein and CRF-R2 receptor complex.; assay type: functional; conditions: read-out: IC50_Mean
T3 sequence (Q13324 whole entry): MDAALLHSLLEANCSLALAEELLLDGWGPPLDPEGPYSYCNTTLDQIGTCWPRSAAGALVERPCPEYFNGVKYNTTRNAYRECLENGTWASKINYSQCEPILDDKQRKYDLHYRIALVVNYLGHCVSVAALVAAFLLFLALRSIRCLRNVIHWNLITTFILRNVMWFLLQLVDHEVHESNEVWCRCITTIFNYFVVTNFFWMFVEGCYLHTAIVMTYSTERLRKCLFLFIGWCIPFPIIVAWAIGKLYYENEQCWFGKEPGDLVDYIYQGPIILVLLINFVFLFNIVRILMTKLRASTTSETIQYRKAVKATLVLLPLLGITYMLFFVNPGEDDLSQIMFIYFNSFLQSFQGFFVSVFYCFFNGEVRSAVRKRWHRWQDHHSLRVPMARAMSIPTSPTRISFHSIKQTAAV
T3 sequence (P24387 whole entry): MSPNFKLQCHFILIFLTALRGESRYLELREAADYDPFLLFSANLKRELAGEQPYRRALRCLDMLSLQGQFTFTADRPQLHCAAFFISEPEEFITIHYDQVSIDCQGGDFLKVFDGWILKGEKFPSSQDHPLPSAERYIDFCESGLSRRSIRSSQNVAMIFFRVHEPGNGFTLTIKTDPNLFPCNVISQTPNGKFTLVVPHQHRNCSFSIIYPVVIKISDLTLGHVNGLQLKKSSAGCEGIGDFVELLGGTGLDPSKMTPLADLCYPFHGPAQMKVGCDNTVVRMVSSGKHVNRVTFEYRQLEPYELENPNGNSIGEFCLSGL

[18] = molecular target: T3, Corticotropin-releasing factor receptor 2/Corticotropin-releasing factor-binding protein; assay: activators of CRF receptor 2 with binding protein – uHTS hits, confirmation (AID 602473); assay type: functional; conditions: read-out: EC50_Mean
[19] = molecular target: Eukaryotic translation initiation factor 4E (Mus musculus, UniProt P63073); assay: eIF4E–eIF4G protein interaction inhibitors, dose response, biochemical, TR-FRET (AID 855); assay type: functional;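 note: potency for disrupting eIF4E binding to eIF4GI seen as loss of FRET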
Chain of Eukaryotic translation initiation factor 4E (P63073 whole entry): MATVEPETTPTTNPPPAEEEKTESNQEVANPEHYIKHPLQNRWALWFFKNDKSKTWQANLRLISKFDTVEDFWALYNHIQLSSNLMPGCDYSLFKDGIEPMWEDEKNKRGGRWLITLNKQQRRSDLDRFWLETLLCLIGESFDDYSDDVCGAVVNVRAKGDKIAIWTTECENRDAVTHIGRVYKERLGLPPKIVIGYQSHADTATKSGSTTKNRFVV

[20] = molecular target: T4, Heat shock factor protein 1 (Mus musculus, UniProt P38532); assay: HSF1 potentiators in luciferase reporter cells, confirmation, cell-based, NIH3T3, luminescence, dose retest (AID 435004); assay type: functional;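 note: stress induced by proteasome inhibitor MG132 added 30 min after compound; luciferase reporter driven by HSF1 response element in NIH3T3 cells; actives raise luminescence as potentiators of the MG132 stress response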
T4 sequence (P38532 whole entry): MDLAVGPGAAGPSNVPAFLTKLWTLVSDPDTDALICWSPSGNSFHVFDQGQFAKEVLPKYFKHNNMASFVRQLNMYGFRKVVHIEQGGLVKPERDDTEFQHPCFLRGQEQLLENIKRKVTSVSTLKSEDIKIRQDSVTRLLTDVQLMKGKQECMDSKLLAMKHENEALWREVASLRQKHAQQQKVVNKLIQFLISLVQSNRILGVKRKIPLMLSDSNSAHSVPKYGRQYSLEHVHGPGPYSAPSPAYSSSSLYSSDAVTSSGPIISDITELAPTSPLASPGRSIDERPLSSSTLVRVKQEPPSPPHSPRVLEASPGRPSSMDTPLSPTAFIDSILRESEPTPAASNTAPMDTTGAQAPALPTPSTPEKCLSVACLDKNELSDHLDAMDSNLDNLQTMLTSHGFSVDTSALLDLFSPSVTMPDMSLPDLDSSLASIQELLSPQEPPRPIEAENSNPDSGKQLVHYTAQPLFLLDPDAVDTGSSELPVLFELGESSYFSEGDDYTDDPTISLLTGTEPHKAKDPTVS

COc1ccccc1-c1nnc(NC(=O)c2ccc3ncsc3c2)o1
CC50 [1]: > 40 µM (active)
CC50 [2]: > 20 µM (active)
CC50 [3]: 10.3 µM (active)
IC50 (cells [4]): 7.75 µM (active)

Cc1cc(C[n+]2cc(Cl)ccc2N)c2ncccc2c1
CC50 [5]: > 50 µM (active)
IC50 (cells [6]): 35.7 µM (active)

O=C(Nc1ccc(Cl)c([N+](=O)[O-])c1)C(Sc1ccccc1)c1ccccc1 (stereo not drawn)
EC50 [7]: 1450 nM (active)
EC50 [8]: > 60 µM (inconclusive)
AC50 (CAAX prenyl protease 2): 7.77 µM (active)

COc1cc2c(cc1OC)CN(C(=O)c1cccc(S(=O)(=O)N3CCc4ccccc43)c1)CC2
CC50 [5]: 18.7 µM (active)
IC50 (Vero [9]): 19.5 µM (active)
CC50 (Vero [10]): > 25 µM (active)
IC50 (cells [6]): 45.9 µM (active)

CCOC(=O)[C@@H]1[C@H]2COc3ccc(Br)cc3[C@@H]2N2C(=O)N(c3cccc(C)c3)C(=O)[C@]12C
AC50 (CAAX prenyl protease 2): 4.52 µM (active)

S=C(NCCc1ccccc1)N1CCn2cccc2C1c1cccnc1 (stereo not drawn)
EC50 [7]: < 100 nM (active)
EC50 [8]: > 60 µM (not active)
EC50 (cells [11]): 112 nM (active)

CC(C)(CO)CNC1CCCN(C2Cc3ccccc3C2)C1 (stereo not drawn)
EC50 [7]: < 100 nM (active)
EC50 [8]: 10.5 µM (active)
EC50 (cells [11]): 120 nM (active)

CCOc1ccc(N2C(=O)C(CC(=O)Nc3ccccc3)N(Cc3ccccn3)C2=S)cc1 (stereo not drawn)
CC50 [5]: 33.6 µM (active)
IC50 (cells [6]): 5 µM (active)

COCCn1c(SC(C)C(=O)Nc2ncc(Cl)cc2Cl)nc2ccccc21 (stereo not drawn)
CC50 [5]: 25.5 µM (active)
IC50 (Vero [9]): 8.99 µM (active)
IC50 (cells [6]): 14.8 µM (active)

Cc1ccc(-n2nc3c(=O)n(CC(=O)NCCc4ccccc4C)nc(C)c3c2C)cc1
IC50 (cells [12]): > 29.9 µM (inactive)
EC50 (cells [13]): > 29.9 µM (inactive)

Cc1cc(-c2nnc(S)n2/N=C/c2ccccc2[N+](=O)[O-])[nH]n1
IC50 [14]: > 100 µM (inactive)
IC50 [15]: 6.21 µM (active)
IC50 [16]: 107 µM (active)

CCn1c(SC)nnc1-c1sc2cc(Cl)ccc2c1Cl
CC50 [5]: 11.2 µM (active)
IC50 (cells [6]): 9.26 µM (active)

Cc1cc(O)nc(SCC(=O)NCCc2ccccc2)n1
IC50 (cells [12]): > 29.9 µM (inactive)
EC50 (cells [13]): > 29.9 µM (inactive)

CCOC(=O)Cc1csc(NC(=O)c2c(O)c3ccccc3n(CCC(C)C)c2=O)n1
CC50 [1]: 15.2 µM (active)
CC50 [2]: > 20 µM (active)
CC50 [3]: 8.56 µM (active)
IC50 (cells [4]): 2.08 µM (active)

CCCCN(C)Cc1c(C)nc2c(Cl)cccc2c1O
EC50 [7]: < 100 nM (active)
EC50 [8]: > 60 µM (not active)
EC50 (cells [11]): 74 nM (active)

O=C(CNc1ccccc1)N/N=C/c1ccc([N+](=O)[O-])o1
EC50 [7]: < 100 nM (active)
EC50 [8]: > 60 µM (not active)
IC50 [17]: > 47.1 µM (inactive)
EC50 [18]: > 53 µM (inactive)
EC50 (cells [11]): 91 nM (active)

Cn1c(S)nnc1-c1csc(-c2ccccc2)n1
IC50 [14]: > 100 µM (inactive)
IC50 [15]: 3.06 µM (active)

C=CCSc1nc(-c2ccc(OC)cc2)c(C#N)c(=O)n1CC=C
IC50 [19]: 50 µM (inactive)
EC50 [20]: 12.7 µM (active)

Nn1c(Cc2cccc3ccccc23)n[nH]c1=S
IC50 [14]: > 100 µM (inactive)
IC50 [15]: 2.94 µM (active)

CCc1nnc(S)n1/N=C/c1ccc(N(CC)CC)cc1
IC50 [14]: > 100 µM (inactive)
IC50 [15]: 6.69 µM (active)

CCOC(=O)Nc1ccc2c(c1)N(C(=O)CCN1CCOCC1)c1ccccc1[S+]2[O-] (stereo not drawn)
CC50 [1]: 26.7 µM (active)
CC50 [3]: > 20 µM (active)
EC50 [20]: > 260 µM (inactive)

C/C(=N\NC(=O)COc1cccc(C)c1)c1ccc2ccccc2c1O
CC50 [1]: 8.95 µM (active)
CC50 [2]: 19.1 µM (active)
CC50 [3]: 16.5 µM (active)

CC(C)Cc1ccc(CN2CCCC(NC(=O)c3nn(C)c(=O)c4ccccc34)C2)cc1 (stereo not drawn)
EC50 [7]: < 100 nM (active)
EC50 [8]: 8.66 µM (active)
EC50 (cells [11]): 21 nM (active)

— ChEMBL document CHEMBL1201862, “PubChem BioAssay data set” (2004)
